ChEMBL document CHEMBL2346619, “Cardioprotective potential of N,α-L-rhamnopyranosyl vincosamide, an indole alkaloid, isolated from the leaves of Moringa oleifera in isoproterenol induced cardiotoxic rats: in vivo and in vitro studies” (Bioorg Med Chem Lett, 2013)
Values after ≈ are worked out from the molar mass of the structure shown.

How the values were obtained:
[1] = tested on: Rattus norvegicus; assay: Cardioprotective effect in isoproterenol-induced Wister albino rats assessed as MDA level in serum per mg protein at 40 mg/kg, po for 7 days (reference value: 2.76 +/- 0.39 nmol/h/mg of protein); type: functional
[2] = tested on: Rattus norvegicus; assay: Cardioprotective effect in isoproterenol-induced Wister albino rats assessed as CK-MB level in serum at 40 mg/kg, po for 7 days (reference value: 146.56 +/- 7.14 IU/L); type: functional
[3] = Antioxidant activity assessed as super oxide scavenging activity; type: functional
[4] = tested on: Rattus norvegicus; assay: Cardioprotective effect in isoproterenol-induced Wister albino rats assessed as LOOH level in serum per mg protein at 40 mg/kg, po for 7 days (reference value: 7.67 +/- 1.07 noml/mg of protein); type: functional
[5] = tested on: Rattus norvegicus; assay: Cardioprotective effect in isoproterenol-induced Wister albino rats assessed as cTnT level in serum at 40 mg/kg, po for 7 days (reference value: 1.99 +/- 0.06 ng/ml); type: functional
[6] = tested on: Rattus norvegicus; assay: Effect on Wister albino rat tissue degradation at 40 mg/kg, po by light microscopy (reference value: 0%); type: ADME, organism-based; parameters: dose 40 mg/kg, route oral; conditions: in vivo
[7] = tested on: Rattus norvegicus; assay: Cardioprotective effect in isoproterenol-induced Wister albino rats assessed as LDH level in serum at 40 mg/kg, po for 7 days (reference value: 216.66 +/- 12.46 IU/L); type: functional
[8] = Antioxidant activity assessed as hydroxy radical scavenging activity; type: functional
[9] = tested on: Rattus norvegicus; assay: Effect on Wister albino rat MDA level in serum per mg of protein at 40 mg/kg, po for 7 days (reference value: 0.67 +/- 0.03 nmol/h/mg of protein); type: ADME, organism-based; parameters: dose 40 mg/kg, route oral; conditions: in vivo, 168 h
[10] = tested on: Rattus norvegicus; assay: Cardioprotective effect in isoproterenol-induced Wister albino rats assessed as inhibition of heart rate at 40 mg/kg, po for 7 days by Electrocardiographic assay (reference value: 430 +/- 5.16 beats/mins); type: functional
[11] = tested on: Rattus norvegicus; assay: Cardioprotective effect in isoproterenol-induced Wister albino rats assessed as inflammatory cells at 40 mg/kg, po for 7 days by light microscopy (reference value: 30.1%); type: functional
[12] = tested on: Rattus norvegicus; assay: Effect on Wister albino rat ST-segment elevation at 40 mg/kg, po by Electrocardiographic assay (reference value: 0.157 +/- 0.003 mV); type: ADME, organism-based; parameters: dose 40 mg/kg, route oral; conditions: in vivo
[13] = tested on: Rattus norvegicus; assay: Effect on Wister albino rat inflammatory cells at 40 mg/kg, po by light microscopy (reference value: 0%); type: ADME, organism-based; parameters: dose 40 mg/kg, route oral; conditions: in vivo
[14] = tested on: Rattus norvegicus; assay: Effect on Wister albino rat heart rate elevation at 40 mg/kg, po by Electrocardiographic assay (reference value: 265 +/- 3.71 beats/mins); type: ADME, organism-based; parameters: dose 40 mg/kg, route oral; conditions: in vivo
[15] = tested on: Rattus norvegicus; assay: Cardioprotective effect in isoproterenol-induced Wister albino rats assessed as SGPT level in serum at 40 mg/kg, po for 7 days (reference value: 76.07 +/- 4.16 U/L); type: functional
[16] = tested on: Rattus norvegicus; assay: Cardioprotective effect in isoproterenol-induced Wister albino rats assessed as tissue degradation at 40 mg/kg, po for 7 days by light microscopy (reference value: 55.15%); type: functional
[17] = tested on: Rattus norvegicus; assay: Effect on Wister albino rat LDH level in serum at 40 mg/kg, po for 7 days (reference value: 29.64 +/- 6.71 IU/L); type: ADME, organism-based; parameters: dose 40 mg/kg, route oral; conditions: in vivo, 168 h
[18] = tested on: Rattus norvegicus; assay: Cardioprotective effect in isoproterenol-induced Wister albino rats assessed as inhibition of ST-segment elevation at 40 mg/kg, po for 7 days by Electrocardiographic assay (reference value: 0.390 +/- 0.015 mV); type: functional
[19] = tested on: Rattus norvegicus; assay: Effect on Wister albino rat CK-MB level in serum at 40 mg/kg, po for 7 days (reference value: 84.68 +/- 3.67 IU/L); type: ADME, organism-based; parameters: dose 40 mg/kg, route oral; conditions: in vivo, 168 h
[20] = tested on: Rattus norvegicus; assay: Effect on Wister albino rat cTnT level in serum at 40 mg/kg, po for 7 days (reference value: 0.66 +/- 0.02 ng/ml); type: ADME, organism-based; parameters: dose 40 mg/kg, route oral; conditions: in vivo, 168 h
[21] = tested on: Rattus norvegicus; assay: Cardioprotective effect in isoproterenol-induced Wister albino rats assessed as tissue viability with less necrotic tissue at 40 mg/kg, po for 7 days by light microscopy (reference value: 52%); type: functional
[22] = tested on: Rattus norvegicus; assay: Effect on Wister albino rat LOOH level in serum per mg of protein at 40 mg/kg, po for 7 days (reference value: 2.90 +/- 0.74 noml/mg of protein); type: ADME, organism-based; parameters: dose 40 mg/kg, route oral; conditions: in vivo, 168 h
[23] = Antioxidant activity assessed as nitric oxide scavenging activity; type: functional
[24] = tested on: Rattus norvegicus; assay: Effect on Wister albino rat SGPT level in serum at 40 mg/kg, po for 7 days (reference value: 30.25 +/- 3.17 U/L); type: ADME, organism-based; parameters: dose 40 mg/kg, route oral; conditions: in vivo, 168 h
[25] = Antioxidant activity assessed as ABTS radical scavenging activity; type: functional
[26] = tested on: Radical scavenging activity; assay: Antioxidant activity assessed as DPPH radical scavenging activity; type: functional

Compound `C=C[C@H]1[C@H](O[C@@H]2O[C@H](CO)[C@@H](O)[C@H](O)[C@H]2O)OC=C2C(=O)N3CCc4c(n(O[C@@H]5O[C@@H](C)[C@H](O)[C@@H](O)[C@H]5O)c5ccccc45)[C@H]3C[C@H]21` has an Activity [1] of 0.99 nmol/h/mg protein, an Activity [2] of 92.01 IU/L and an IC50 [3] of 16.71 µg/mL (≈ 25.3 µM). The Activity [4] was 4.1 nmol, the Activity [5] was 0.67 ng/mL and the Activity [6] was 0%. The Activity [7] was 160.72 IU/L, the IC50 [8] was 4.95 µg/mL (≈ 7.49 µM) and the Activity [9] was 0.79 nmol/h/mg protein. It also gave an Activity [10] of 260 bpm, an Activity [11] of 0% and an Activity [12] of 0.14 mV. It also gave an Activity [13] of 0%, an Activity [14] of 270 bpm and an Activity [15] of 58.92 U/L. It also gave an Activity [16] of 0%, an Activity [17] of 117.34 IU/L and an Activity [18] of 0.22 mV. It also gave an Activity [19] of 82.12 IU/L, an Activity [20] of 0.62 ng/mL and an Activity [21] of 20%. The Activity [22] was 2.62 nmol, the IC50 [23] was 7.16 µg/mL (≈ 10.8 µM) and the Activity [24] was 22.11 U/L. The IC50 [25] was 29.65 µg/mL (≈ 44.9 µM) and the IC50 [26] was 37.76 µg/mL (≈ 57.2 µM).
